Reference: US20160199469A1, “ONCOLOGY VACCINE” (priority 2013, published 2016)

Legend:
Assay type in all cases: cell-based, human
[1] = test system: PBMC from individuals with non-small cell lung cancer (NSCLC); assay: IFNγ ELISpot after 7 day short-term culture, NSCLC patients (Example 3); settings: for responder frequency: NSCLC patients, percentage of patients with peptide responses of greater than 500 SFC/million, peptide pools 5 μg/peptide/mL; for IFN-γ ELISpot spot intensity in NSCLC patients compared with healthy subjects: FIG. 7, Mann-Whitney unpaired test
[2] = test system: PBMC from healthy subjects; assay: Peptide-specific T cell responses by IFN-γ ELISpot after short term culture, healthy subjects (Example 2); settings: positive response = SFC/10^6 PBMC greater than 20, pools of overlapping 18-mer peptides at 5 μg/peptide/mL
Method: Peptide-specific T cell responses were evaluated in peripheral mononuclear cells obtained from healthy subjects. After thawing, PBMC were cultured in 24-well flat bottom plates (or 48-well bottom plates) at a density of 1 million cells per ml in the presence of culture medium (RPMI 1640 Medium, Glutamax™ (Life Technologies) with 5% (v/v) human AB Serum (PAA Laboratories Ltd)) and a pool of peptides (composed of P103-P53, P513_MAGE3, P679_MAGE3, P805_NY_ESO1, P1575_HER, P2238-HER, P3825_MUC1, P3776_MUC1, P4540_hTERT, P4575_hTERT, P5400_MAGE1, P-HAGE) at a total final concentration of 20 μg/mL.
The plates were incubated at 37° C. in a 5% CO2 incubator and on Day 4, recombinant human IL-2 and IL-15 (R&D Systems) were added to each well at final concentrations of 10 IU/ml and 10 ng/mL respectively. On Day 7, PBMC cultures were removed and washed in culture medium and replaced back into wells in culture medium containing 10 IU/mL of IL-2. After overnight resting at 37° C. in a 5% CO2 incubator, cells were removed, counted and assessed for viability. PVDF plates (MSIPS4510, Millipore) were coated with anti-human IFN-γ antibody (R&D systems) and incubated overnight at 4° C. Plates were then washed and incubated with blocking buffer (1% BSA (PAA), 5% sucrose (Fisher), Dulbecco's-PBS (Invitrogen)) for at least 1 hour and finally washed with culture medium before use. […] After 18 hours of culture, plates were washed and incubated with a biotinylated secondary anti-human IFN-γ antibody (R&D systems) followed by streptavidin-AP. Production of IFN-γ was detected using the ELISpot blue colour module (R&D Systems) as per manufacturer's instructions. Plates were scanned and wells were counted using an automated ELISpot plate reading system equipped with spot counting software (Cellular Technology Limited). Results are expressed as Spot Forming Cells (SFC)/10^6 PBMC and background responses represented by IFNγ SFC of PBMC in culture medium alone have been subtracted for each subject. Positive response was defined as number of Spot Forming Cells (SFC)/10^6 PBMC greater than 20.

PBMC from NSCLC subjects = assay: Intracellular cytokine staining (ICS) of CD4+ and CD8+ T cells after short-term culture; settings: for Th1 cytokine-producing CD4 and/or CD8 T cell responses: intracellular cytokine staining, FIGS. 8, 9 and 10; for level of response among the peptides in the mixture: short term culture with a combination of peptide pools
Method: PBMC were cultured in 2 mL culture medium (CM, RPMI1640 Glutamax supplemented with 5% untreated human AB serum (PAA) and gentamicin) in 24 well cell culture plates at a concentration of 1×10^6 cells/mL for a total of 7 days. Each pool was added at 20 μg/mL total peptide final concentration. On day 1, IL-7 (Peprotech) and IL-2 (R&D Systems) were added to the cultures to a final concentration of 5 ng/mL and 10 IU/mL respectively. On day 3, IL-2 was added at a concentration of 10 IU/mL. On day 7, cells were harvested from cell culture plates washed with culture medium and counted using TruCount (BD Biosciences) before analysis using IFNγ (interferon gamma) ELISpot assay or intracellular cytokine staining (ICS) as described below.
Short term culture of PBMC were prepared as described above, except culture conditions 1 and 2 were replaced with alternative culture conditions 1 to 5 below, each of which involves stimulation with a different combination of peptide pools:
Culture 5: P-P805_NY_ESO1
Cells from the short-term cultures were plated in a 96 well round bottom plate at 5×10^5 PBMC/well stimulated with individual peptide pools used at a concentration of 5 μg/peptide/mL. Plates were incubated at 37° C. in a 5% CO2 incubator for 20h. PMA/Ionomycin was added to respective wells and Golgi plug (BD Biosciences) was added to all wells after the first 3h of the assay. The cells were harvested and washed with PBS+0.1% BSA (wash buffer) and stained with anti-CD3, anti-CD4 and anti-CD8 (BD Biosciences) for 30 minutes at 4° C. After another wash, the cells were fixed and permeabilised with 100 μL of Cytofix/Cytoperm solution (BD Biosciences) for 20 minutes at 4° C., followed by two washes with 1× Perm/Wash solution (BD Biosciences). Finally, cells were stained with ant-IL-2-FITC, anti-IFNγ-PE and anti-TNFα PerCP-Cy5.5 (BD Biosciences) for 30 minutes at 4° C. Samples were acquired on a FACSCanto II flow cytometer (BD Biosciences). Gating was based on isotype control antibody staining and media stimulated samples for each subject.

[3] = test system: PBMC from healthy individuals; assay: IFNγ ELISpot after 7 day short-term culture, healthy individuals (Example 3); settings: healthy subjects (FIGS. 3 and 5)

Sequence | responder frequency [1] [%] | frequency of responding subjects [2] [%] | IFN-γ ELISpot spot intensity in NSCLC patients compared with healthy subjects [1] | Th1 cytokine-producing CD4 and/or CD8 T cell responses (PBMC from NSCLC subjects) | further results
AFLSVKKQFEELTLGEFLKLDRERAKNKIAKETNNKKKE (listed as Homo sapiens) [P991_SURVIVIN] | 14.51 | – | – | – | –
AGIRRDGLLLRLVDDFLLVTPHLTHAKTFLRTLVRGVPEYG (listed as Homo sapiens) [P4862_TERT] | – | – | – | – | responder frequency ([1]; listed as P4862_hTERT): 7.93%
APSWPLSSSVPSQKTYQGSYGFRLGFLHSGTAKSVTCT (listed as Homo sapiens) [P103-P53] | – | 100 | significantly lower | ability to promote Th1 cytokine-producing CD4 and/or CD8 T cell responses | –
EFQAALSRKVAELVHFLLLKYRAREPVTKAEMLG (listed as Homo sapiens) [P513_MAGE3] | 18.46 | 50 | – | – | –
EMFLQIYKQGGFLGLSNIKFRPGSVVVQLTLAFREGTINVH (listed as Homo sapiens) [P3825_MUC1] | 8.06 | 17 | – | – | –
GAQYRIHTHGVFRGIQDVRRVPGVAPTLVRSASETSEKRPF (listed as Homo sapiens) [P1331_WT1] | 5.08 | – | – | – | –
GENVKIPVAIKVLRENTSPKANKEILDEAYVMAGVGSPYVSRKK (listed as Homo sapiens) [P2238-HER] | 10.00 | 83 | – | – | –
HREARPALLTSRLRFIPKPDGLRPIVNMDYVVGARTFRREK [P4616_hTERT] | 37.50 | – | – | ability to promote Th1 cytokine-producing CD4 and/or CD8 T cell responses | –
HRLREEILAKFLHWLMSVYVVELLRSFFYVTETTFQKNR (listed as Homo sapiens) [P4540_hTERT] | 23.43 | 67 | significantly lower | ability to promote Th1 cytokine-producing CD4 and/or CD8 T cell responses | –
ILESLFRAVITKKVADLVGFLLLKYRAREPVTKAEMLESVIK (listed as Homo sapiens) [P5232_MAGE1] | 32.25 | – | significantly lower | ability to promote Th1 cytokine-producing CD4 and/or CD8 T cell responses | –
LGLSYDGLLGDNQIMPKAGLLIIVLAIIAREGD (listed as Homo sapiens) [P590-MAGE3] | 15.87 | – | – | – | –
MTPGTQSPFFLLLLLTVLTVVTGSGHASSTPGG (listed as Homo sapiens) [P2753_MUC1] | 4.76 | – | – | – | –
PALGSTAPPVHNVTSASGSASGSASTLVHNGTSARATTTPASK (listed as Homo sapiens) [P3698_MUC1] | 14.06 | – | – | – | –
PARYEFLWGPRALAETSYVKVLEYVIKVSARVRFFFPSLREA (listed as Homo sapiens) [P5400_MAGE1] | 27.41 | 100 | significantly lower | ability to promote Th1 cytokine-producing CD4 and/or CD8 T cell responses | level of response among the peptides in the mixture (PBMC from NSCLC subjects): highest level of response
PDGPGGNAGGPGEAGATGGRGPRGAGAARASGPGGGAP (listed as Homo sapiens) [P750-NYESO, used as a negative control peptide] | 3.12 | – | – | – | magnitude of response and responder frequency ([1]; NSCLC patients (FIGS. 2 and 4)): amongst the lowest responding peptides; magnitude of response and responder frequency [3]: amongst the lowest responding peptides
QTGTGKTLCYLMPGFIHLVLQPSLKGQRNRPGMLV (listed as Homo sapiens) [P-HAGE] | – | 50 | significantly lower | ability to promote Th1 cytokine-producing CD4 and/or CD8 T cell responses | –
RAVRSLLRSHYREVLPLATFVRRLGPQGWRLVQRGDPAAFRA (listed as Homo sapiens) [P4020_hTERT] | 32.81 | – | significantly lower | ability to promote Th1 cytokine-producing CD4 and/or CD8 T cell responses | –
RGPESRLLEFYLAMPFATPMEAELARRSLAQDAPPLPVPG (listed as Homo sapiens) [P805_NY_ESO1] | 34.92 | 50 | significantly lower | ability to promote Th1 cytokine-producing CD4 and/or CD8 T cell responses | level of response among the peptides in the mixture (PBMC from NSCLC subjects): highest level of response
RLLQLHITMPFSSPMEAELVRRILSRDAAPLPRPGAVL (listed as Homo sapiens) [P5525_LAGE1] | 31.03 | – | significantly lower | ability to promote Th1 cytokine-producing CD4 and/or CD8 T cell responses | –
RTFRREKRAERLTSRVKALFSVLNYERARRPGLLGASVLGLDDI (listed as Homo sapiens) [P4650_hTERT] | 38.70 | – | significantly lower | ability to promote Th1 cytokine-producing CD4 and/or CD8 T cell responses | –
SVVGNWQYFFPVIFSKASSSLQLVEGIELMEVDPIGHLYIF (SVVGNWQYFFPVIFSKASSSLQLVFGIELMEVDPIGHLYIF; listed as Homo sapiens) [P550_MAGE3] | – | – | significantly lower | ability to promote Th1 cytokine-producing CD4 and/or CD8 T cell responses | level of response among the peptides in the mixture (PBMC from NSCLC subjects): highest level of response
TFQKNRLFFYRKSVWSKLQSIGIRQHLKRVQLRELSEAEVR (listed as Homo sapiens) [P4575_hTERT] | – | 100 | – | ability to promote Th1 cytokine-producing CD4 and/or CD8 T cell responses | –
TSSNHSTSPQLSTGVSFFFLSFHISNLQFNSSLEDPST (listed as Homo sapiens) [P3776_MUC1] | 4.76 | 100 | – | – | –
VQGYVLIAHNQVRQVPLQRLRIVRGTQLFEDNYALAVL (listed as Homo sapiens) [P1575_HER] | 16.12 | 100 | – | – | –
YEFLWGPRALVETSYVKVLHHMVKISGGPHISYPPLH (listed as Homo sapiens) [P679_MAGE3] | 28.57 | 80 | significantly lower | ability to promote Th1 cytokine-producing CD4 and/or CD8 T cell responses | –
